Measurements: patent US9434687B2, “Detection of synthetic cannabinoids” (priority 2011, dated 2016)

test system: antibodies raised to Immunogens I & II; test: Competitive ELISA, selected molecules as potential cross-reactants (Table 3); format: binding, sheep
Description: (a) The wells of an enhanced binding 96 well polystyrene microtiter plate were coated with the Ig fraction of the antiserum raised to Immunogen I (Hapten A-BTG—example 5) and diluted in 10 mM Tris, pH8.5 (125 μl/well). The appropriate antibody coating concentration was determined using standard ELISA checkerboard techniques. The plate was incubated for 2 hours at 37° C., washed 4 times over a 10-minute period with Tris buffered saline containing Tween 20 (TBST) and tapped dry. Standard solutions of JWH synthetic cannabinoids, metabolites and selected molecules were prepared in TBST and 50 μl of each was added to the appropriate wells. 75 μl of conjugate (Hapten A-HRP) diluted in Tris buffer containing EDTA, D-mannitol, sucrose, thimerosal and BSA, was added to each of the wells. The appropriate dilution of conjugate was also determined using standard ELISA checkerboard techniques. The plate was incubated at 25° C. for 1 hour. The excess unbound conjugate was removed by washing 6 times over a 10-minute period with TBST and tapped dry. 125 μl of tetramethylbenzedine (TMB) substrate solution was added to each well of the plate that was then incubated for 15-20 minutes in the dark at room temperature. The reaction was terminated by addition of 125 μl of 0.2M sulphuric acid to each well. The absorbance was then measured at 450 nm using a microtiter plate reader.
Employing each series of standards, calibration curves were generated and these were used to determine the specificity of the immunoassay for the JWH synthetic cannabinoids, metabolites and selected molecules. The results of this study are presented in Tables 1 to 3, cross-reactivity being calculated according to the following formula: % CR=IC50,JWH-018/IC50,CR×100
Where % CR is the percentage cross-reactivity, IC50, JWH-018 is the concentration of JWH-018 that causes 50% displacement of signal and IC50, CR is the concentration of JWH synthetic cannabinoid/metabolite/selected molecule that causes 50% displacement of signal.
The antibody produced from Immunogen I is able to bind to JWH molecules known to be incorporated in herbal therapeutics such as JWH-018, proposed metabolites such as M2 (Wintermeyer et al 2010), and potential metabolites such as M5. The detection and quantification of other JWH SSCs is also provided for, the antibodies of the invention bind a range of molecules comprising the 3-(1-naphthoyl)-1H-indole structure (e.g. JWH-071, JWH-398, M1 etc.). […] The concept of using the antibodies of the invention to detect and determine future stealth synthetic cannabinoids is highlighted in Table 4; the 5-fluoropentyl derivative known to bind the CB 1 receptor, but which as of yet has not been detected in herbal therapeutics or similar substances, binds to antibodies raised from Immunogens I and II.

Row | SMILES | binding / cross-reaction with antibodies raised from Immunogens I and II (in words)
1 | O=C(c1cccc2ccccc12)c1cn(CCCCCF)c2ccccc12 [AM-2201, 1-(5-Fluoropentyl)indol-3-yl (1-naphthyl) methanone] | binds
2 | O=C(O)CCCCn1cc(C(=O)c2cccc3ccccc23)c2ccccc21 [JWH-018 N-pentanoic acid metabolite] | bind
3 | CCCCCn1cc(C(=O)c2ccc(Cl)c3ccccc23)c2ccccc21 [JWH-398] | bind
